Common to all, as to type: in vivo
The subject of assay [1] is arrowleaf sida (Sida rhombifolia). The experiment in a line: Test F pre-/postemergence: arrowleaf sida. The source says:
(§1) Seeds of plant species selected from corn (Zea mays), soybean (Glycine max), velvetleaf (Abutilon theophrasti), lambsquarters (Chenopodium album), poinsettia, wild (wild poinsettia, Euphorbia heterophylla), pigweed, palmer (palmer pigweed, Amaranthus palmeri), waterhemp (common waterhemp, Amaranthus rudis), surinam grass (Brachiaria decumbens), crabgrass, Brazil (Brazilian crabgrass, Digitaria horizontalis), panicum, fall (fall panicum Panicum dichotomiflorum), crabgrass, large (large crabgrass, Digitaria sanguinalis), foxtail, giant (giant foxtail, Setaria faberii), foxtail, green (green foxtail Setaria viridis), goosegrass (Eleusine indica), ragweed (common ragweed, Ambrosia elatior), barnyardgrass (Echinochloa crus-galli), sandbur (southern sandbur, Cenchrus echinatus), arrowleaf sida (Sida rhombifolia), ryegrass, Italian (Italian ryegrass, Lolium multiflorum), dayflower, VA (Virginia (VA) dayflower, Commelina virginica), field bindweed (Convolvulus arvensis), cocklebur (common cocklebur, Xanthium strumarium), morningglory (Ipomoea coccinea), nightshade (eastern black nightshade, Solanum ptycanthum), kochia (Kochia scoparia), nutsedge, yellow (yellow nutsedge, Cyperus esculentus), johnsongrass (Sorghum halepense), smartweed (ladysthumb smartweed, Polygonum persicaria), and beggarticks (hairy beggarticks, Bidens pilosa), were planted into a silt loam soil and treated preemergence with test chemicals formulated in a non-phytotoxic solvent mixture which included a surfactant. At the same time, plants selected from these crop and weed species and also pigweed (Amaranthus retroflexus), waterhemp_RES1 (ALS/Triazine resistant common waterhemp, Amaranthus rudis) and waterhemp_RES2 (ALS/HPPD resistant common waterhemp, Amaranthus rudis) were planted in pots containing a planting medium comprising spaghnum peat moss, vermiculite, wetting agent and starter nutrients treated with postemergence applications of some of the test chemicals formulated in the same manner. Plants ranged in height from 2 to 18 cm for postemergence treatments (1- to 4-leaf stage).
(§2) Treated plants and controls were maintained in a greenhouse for 14 to 21 days, after which time all species were compared to controls and visually evaluated. Plant response ratings, summarized in Table E, are based on a scale of 0 to 100 where 0 is no effect and 100 is complete control. A dash (-) response means no test result.

In assay [2] the test system is beggarticks (hairy beggarticks, Bidens pilosa). The experiment in a line: Test F pre-/postemergence: beggarticks.
Excerpt: as §1, §2

The test system of assay [3] is foxtail, giant (giant foxtail, Setaria faberii). The assay is described as follows: Test F pre-/postemergence: foxtail, giant. To be noted: Preemergence.
Excerpt: as §1, §2

Assay [4] has as its system poinsettia, wild (wild poinsettia, Euphorbia heterophylla). The experiment in a line: Test E pre-/postemergence: poinsettia, wild. Conditions: scale 0 to 100.
Excerpt: (§3) Seeds of plant species selected from corn (Zea mays), soybean (Glycine max), velvetleaf (Abutilon theophrasti), lambsquarters (Chenopodium album), poinsettia, wild (wild poinsettia, Euphorbia heterophylla), pigweed, palmer (palmer pigweed, Amaranthus palmeri), waterhemp (common waterhemp, Amaranthus rudis), smartweed (ladysthumb smartweed, Polygonum persicaria), surinam grass (Brachiaria decumbens), crabgrass, large (large crabgrass, Digitaria sanguinalis), crabgrass, Brazil (Brazilian crabgrass, Digitaria horizontalis), panicum, fall (fall panicum, Panicum dichotomiflorum), foxtail, giant (giant foxtail, Setaria faberii), foxtail, green (green foxtail, Setaria viridis), goosegrass (Eleusine indica), johnsongrass (Sorghum halepense), ragweed (common ragweed, Ambrosia elation), barnyardgrass (Echinochloa crus-galli), sandbur (southern sandbur, Cenchrus echinatus), arrowleaf sida (Sida rhombifolia), ryegrass, Italian (Italian ryegrass, Lolium multiflorum), dayflower, (VA) (Virginia dayflower, Commelina virginica), field bindweed (Convolvulus arvensis), cocklebur (common cocklebur, Xanthium strumarium), morningglory (Ipomoea coccinea), nightshade (eastern black nightshade, Solanum ptycanthum), kochia (Kochia scoparia), nutsedge, yellow (yellow nutsedge, Cyperus esculentus) and beggarticks (hairy beggarticks, Bidens pilosa) were planted into a silt loam soil and treated preemergence with test chemicals formulated in a non-phytotoxic solvent mixture which included a surfactant. At the same time, plants selected from these crop and weed species were planted in pots containing a growing medium comprising spaghnum peat moss, vermiculite, wetting agent and starter nutrients and treated with postemergence applications of some of the test chemicals formulated in the same manner. Plants ranged in height from 2 to 18 cm for postemergence treatments (1- to 4-leaf stage).
as §2

Assay [5] relates to soybean (Glycine max). The experiment in a line: Test E pre-/postemergence: soybean. Conditions: scale 0 to 100.
Excerpt: as §3, §2

The subject of assay [6] is lambsquarters (Chenopodium album). The assay is described as follows: Test E pre-/postemergence: lambsquarters. Conditions: Preemergence, scale 0 to 100.
Excerpt: as §3, §2

The subject of assay [7] is velvetleaf (Abutilon theophrasti). The experiment in a line: Test E pre-/postemergence: velvetleaf. To be noted: Preemergence, scale 0 to 100.
Excerpt: as §3, §2

Assay [8] has as its system crabgrass, Brazil (Brazilian crabgrass, Digitaria horizontalis). The experiment in a line: Test F pre-/postemergence: crabgrass, Brazil. Conditions: Postemergence, scale 0 to 100.
Excerpt: as §1, §2

[9] abbreviates: Preemergence, 16 g ai/ha, scale 0 to 100 (0 no effect, 100 complete control).
The mark [10] stands for this setting: Preemergence, 31 g ai/ha, scale 0 to 100 (0 no effect, 100 complete control).
The mark [11] stands for this setting: Preemergence, 62 g ai/ha, scale 0 to 100.
[12] abbreviates: Preemergence, 125 g ai/ha, scale 0 to 100.
Setting [13] is: Postemergence, 8 g ai/ha, scale 0 to 100.
Setting [14] is: Postemergence, 16 g ai/ha, scale 0 to 100.
[15] abbreviates: Postemergence, 31 g ai/ha, scale 0 to 100.
The mark [16] stands for this setting: Postemergence, 62 g ai/ha, scale 0 to 100.
[17] abbreviates: Postemergence, 125 g ai/ha, scale 0 to 100.

For `Fc1ccc(-n2nc(Cc3ccnc(C(F)(F)F)c3)c(OCC(F)(F)F)n2)cc1` [Compound 142], the “Plant response rating, Arrowleaf Sida” value in assay [1] (setting [9]) stood at 0; in assay [1] (setting [10]) it was 30; in assay [1] (setting [11]), 30; in assay [1] (setting [12]), 35. For the same compound, the “Plant response rating, Beggarticks” value in assay [2] (setting [9]) was determined as 0; in assay [2] (setting [10]), 40; in assay [2] (setting [11]), 65; in assay [2] (setting [12]), 75. For the same compound, the “Plant response rating, Foxtail, Giant” value in assay [3] (16 g ai/ha, scale 0 to 100 (0 no effect, 100 complete control)) came to 35; in assay [3] (31 g ai/ha, scale 0 to 100 (0 no effect, 100 complete control)), 75; in assay [3] (62 g ai/ha, scale 0 to 100), 100; in assay [3] (125 g ai/ha, scale 0 to 100), 100.
For the compound `Cc1nn(-c2ccc(F)cc2)nc1Cc1ccnc(C(F)(F)F)c1` [Compound 16, 4-[[2-(4-fluorophenyl)-5-methyl-2H-1,2,3-triazol-4-yl]methyl]-2-(trifluoromethyl)pyridine], the “Plant response rating: Poinsettia, Wild” value in assay [4] (Preemergence, 8 g ai/ha) was found to be 0; in assay [4] (Preemergence, 16 g ai/ha), 0; in assay [4] (Preemergence, 31 g ai/ha), 20; in assay [4] (Preemergence, 62 g ai/ha), 40; in assay [4] (Preemergence, 125 g ai/ha) it was 98. The “Plant response rating: Soybean” value in assay [5] (Preemergence, 8 g ai/ha) is given as 0; in assay [5] (Preemergence, 16 g ai/ha) it was 0; in assay [5] (Preemergence, 31 g ai/ha) it was 0; in assay [5] (Preemergence, 62 g ai/ha), 0; in assay [5] (Preemergence, 125 g ai/ha) it was 20. For the same compound, the “Plant response rating: Lambsquarters” value stood at 0 in assay [6] (8 g ai/ha); 0 in assay [6] (16 g ai/ha); 75 in assay [6] (31 g ai/ha); 98 in assay [6] (62 g ai/ha); 98 in assay [6] (125 g ai/ha). In addition, the “Plant response rating: Velvetleaf” value is 0 in assay [7] (8 g ai/ha); 20 in assay [7] (16 g ai/ha); 30 in assay [7] (31 g ai/ha); 80 in assay [7] (62 g ai/ha); 80 in assay [7] (125 g ai/ha).
Consider `Cc1nn(-c2ccc(F)cc2)nc1Oc1ccnc(C(F)(F)F)c1` [Compound 129, 4-[[2-(4-fluorophenyl)-5-methyl-2H-1,2,3-triazol-4-yl]oxy]-2-(trifluoromethyl)pyridine], for which the “Plant response rating: Poinsettia, Wild” value in assay [4] (Preemergence, 8 g ai/ha) was 0; in assay [4] (Preemergence, 16 g ai/ha), 0; in assay [4] (Preemergence, 31 g ai/ha) it was 0; in assay [4] (Preemergence, 62 g ai/ha) it was 0; in assay [4] (Preemergence, 125 g ai/ha), 25. Moreover, the “Plant response rating: Soybean” value in assay [5] (Preemergence, 8 g ai/ha) is on record as 0; in assay [5] (Preemergence, 16 g ai/ha), 15; in assay [5] (Preemergence, 31 g ai/ha), 15; in assay [5] (Preemergence, 62 g ai/ha) it was 20; in assay [5] (Preemergence, 125 g ai/ha), 25. Further, the “Plant response rating: Lambsquarters” value in assay [6] (8 g ai/ha) is 0; in assay [6] (16 g ai/ha) it was 0; in assay [6] (31 g ai/ha), 0; in assay [6] (62 g ai/ha), 75; in assay [6] (125 g ai/ha), 98. Also, the “Plant response rating: Velvetleaf” value in assay [7] (8 g ai/ha) was determined as 0; in assay [7] (16 g ai/ha) it was 0; in assay [7] (31 g ai/ha), 0; in assay [7] (62 g ai/ha) it was 20; in assay [7] (125 g ai/ha), 25.
As to `Cc1nn(-c2ccc(C(F)(F)F)cc2)nc1Cc1ccnc(C(F)(F)F)c1` [Compound 47, 4-[[5-methyl-2-[4-(trifluoromethyl)phenyl]-2H-1,2,3-triazol-4-yl]methyl]-2-(trifluoromethyl)pyridine], the “Plant response rating: Poinsettia, Wild” value in assay [4] (Postemergence, 250 g ai/ha) is 100; in assay [4] (Postemergence, 16 g ai/ha), 75; in assay [4] (Postemergence, 31 g ai/ha), 75; in assay [4] (Postemergence, 62 g ai/ha), 90; in assay [4] (Postemergence, 125 g ai/ha), 98; in assay [4] (Preemergence, 16 g ai/ha) it was 0. Moreover, the “Plant response rating: Poinsettia, Wild” value in assay [4] (Preemergence, 31 g ai/ha) stood at 25; in assay [4] (Preemergence, 62 g ai/ha), 40; in assay [4] (Preemergence, 125 g ai/ha), 65; in assay [4] (Preemergence, 250 g ai/ha), 100. The “Plant response rating: Soybean” value in assay [5] (Postemergence, 250 g ai/ha) is 75; in assay [5] (Postemergence, 16 g ai/ha), 50; in assay [5] (Postemergence, 31 g ai/ha) it was 50; in assay [5] (Postemergence, 62 g ai/ha) it was 60; in assay [5] (Postemergence, 125 g ai/ha) it was 60; in assay [5] (Preemergence, 16 g ai/ha), 0. Moreover, the “Plant response rating: Soybean” value is reported as 40 in assay [5] (Preemergence, 31 g ai/ha); 40 in assay [5] (Preemergence, 62 g ai/ha); 40 in assay [5] (Preemergence, 125 g ai/ha); 40 in assay [5] (Preemergence, 250 g ai/ha). Besides, the “Plant response rating: Lambsquarters” value is 95 in assay [6] (16 g ai/ha); 95 in assay [6] (31 g ai/ha); 98 in assay [6] (62 g ai/ha); 100 in assay [6] (125 g ai/ha); 100 in assay [6] (250 g ai/ha). Further, the “Plant response rating: Velvetleaf” value amounted to 30 in assay [7] (16 g ai/ha); 40 in assay [7] (31 g ai/ha); 40 in assay [7] (62 g ai/ha); 75 in assay [7] (125 g ai/ha); 100 in assay [7] (250 g ai/ha).
Turning to `Cc1nn(-c2ccc(F)c(F)c2)nc1Oc1ccnc(C(F)(F)F)c1` [Compound 145], the “Plant response rating, Arrowleaf Sida” value is listed as 30 in assay [1] (setting [13]); 40 in assay [1] (setting [14]); 50 in assay [1] (setting [15]); 60 in assay [1] (setting [16]); 70 in assay [1] (setting [17]). Further, the “Plant response rating, Beggarticks” value in assay [2] (setting [13]) was 10; in assay [2] (setting [14]) it was 25; in assay [2] (setting [15]) it was 30; in assay [2] (setting [16]), 35; in assay [2] (setting [17]), 45. Further, the “Plant response rating, Crabgrass, Brazil” value in assay [8] (8 g ai/ha) is 15; in assay [8] (16 g ai/ha), 25; in assay [8] (31 g ai/ha), 40; in assay [8] (62 g ai/ha), 40; in assay [8] (125 g ai/ha), 50.

For the origin of these results see patent US9302999B2, “Substituted triazoles as herbicides” (E. I. DU PONT DE NEMOURS AND COMPANY, priority 2012, dated 2016).
